Reference: patent US8338472B2, “Hexahydrocyclopentyl[F]indazole carboxamides and derivatives thereof as selective glucocorticoid receptor modulators” (Merck Sharp & Dohme Corp., priority 2008, dated 2012)
pEC50, pKi: −log10 of the molar value. Where two headings read alike, the source gives them in different places.

Assays:
[1] = biological target: T1, glucocorticoid receptor (GR) (Homo sapiens, UniProt P04150); experiment: Ligand binding assay (GR BIND), 3H-dexamethasone displacement in MDA-MB-453 cell lysate; conditions: GR BIND Ki
T1 sequence (P04150 1-777): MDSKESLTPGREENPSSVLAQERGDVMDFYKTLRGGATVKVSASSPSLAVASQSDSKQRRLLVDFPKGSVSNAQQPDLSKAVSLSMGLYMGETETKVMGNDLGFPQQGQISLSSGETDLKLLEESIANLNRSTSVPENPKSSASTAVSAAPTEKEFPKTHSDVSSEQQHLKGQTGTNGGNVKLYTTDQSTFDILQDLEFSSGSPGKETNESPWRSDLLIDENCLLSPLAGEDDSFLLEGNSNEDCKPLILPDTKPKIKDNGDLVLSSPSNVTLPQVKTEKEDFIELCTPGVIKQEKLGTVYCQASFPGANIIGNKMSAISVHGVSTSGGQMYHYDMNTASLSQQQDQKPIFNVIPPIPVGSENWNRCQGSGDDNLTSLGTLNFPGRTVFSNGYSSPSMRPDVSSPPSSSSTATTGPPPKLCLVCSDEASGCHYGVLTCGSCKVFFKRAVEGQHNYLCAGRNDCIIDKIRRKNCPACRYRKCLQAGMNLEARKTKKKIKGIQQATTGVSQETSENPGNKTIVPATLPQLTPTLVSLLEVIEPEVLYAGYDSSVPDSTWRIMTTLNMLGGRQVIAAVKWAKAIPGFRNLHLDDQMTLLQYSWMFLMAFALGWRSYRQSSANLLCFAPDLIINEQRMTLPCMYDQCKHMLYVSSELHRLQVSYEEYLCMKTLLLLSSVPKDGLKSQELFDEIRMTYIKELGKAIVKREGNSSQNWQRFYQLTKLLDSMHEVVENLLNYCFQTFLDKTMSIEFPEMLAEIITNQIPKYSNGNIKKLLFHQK
Experimental: Binding Buffer: TEGM (10 mM Tris-HCl, 1 mM EDTA, 10% glycerol, 1 mM beta-mecaptoethanol, 10 mM Sodium Molybdate, pH 7.2)
50% HAP Slurry: Calbiochem Hydroxylapatite, Fast Flow, in 10 mM Tris, pH 8.0 and 1 mM EDTA.
Wash Buffer: 40 mM Tris, pH7.5, 100 mM KCl, 1 mM EDTA and 1 mM EGTA.
Dexmethasone-methyl-^3H, (DEX*); (Amersham cat# TRK645)
Dexamethasone(DEX) (Sigma, cat# D1756):
The cell pellet is washed twice with TEGM (10 mM Tris-HCl, 1 mM EDTA, 10% glycerol, 1 mM beta-mercaptoethanol, 10 mM Sodium Molybdate, pH 7.2). After the final wash, the cells are resuspended in TEGM at a concentration of 10^7 cells/mL. The cell suspension is snap frozen in liquid nitrogen or ethanol/dry ice bath and transferred to −80° C. freezer on dry ice. Before setting up the binding assay, the frozen samples are left on ice-water to just thaw (˜1 hr). Then the samples are centrifuged at 12,500 g to 20,000 g for 30 min at 4° C. The supernatant is used to set-up assay right away. If using 50 μL of supernatant, the test compound can be prepared in 50 μL of the TEGM buffer.
Procedure for Multiple Compound Screening
1×TEGM buffer is prepared, and the isotope-containing assay mixture is prepared in the following order: EtOH (2% final concentration in reaction), ^3H-DEX (Amersham Biosciences) and 1×TEGM. [e.g. For 100 samples, 200 μL (100×2) of EtOH+4.25 μL of 1:10 ^3H-Dex stock+2300 μL (100×23) 1×TEGM]. The compound is serially diluted, e.g., if starting final conc. is 1 μM, and the compound is in 25 μL of solution, for duplicate samples, 75 μL of 4×1 μM solution is made and 3 μL of 100 μM is added to 72 μL of buffer, and 1:5 serial dilution.
25 μL of ^3H-DEX (6 nM) trace and 25 μL compound solution are first mixed together, followed by addition of 50 μL receptor solution. The reaction is gently mixed, spun briefly at about 200 rpm and incubated at 4° C. overnight. 100 μL of 50% HAP slurry is prepared and added to the incubated reaction which is then vortexed and incubated on ice for 5 to 10 minutes. The reaction mixture is vortexed twice more to resuspend HAP while incubating reaction. The samples in 96-well format are then washed in wash buffer using The FilterMate™ Universal Harvester plate washer (Packard). The washing process transfers HAP pellet containing ligand-bound expressed receptor to Unifilter-96 GF/B filter plate (Packard). The HAP pellet on the filter plate is incubated with 50 μL of MICROSCINT (Packard) scintillint for 30 minutes before being counted on the TopCount microscintillation counter (Packard). IC50s are calculated using DEX as a reference.

[2] = biological target: T2, human GR (Homo sapiens, UniProt P04150); experiment: Transrepression Assay (GITAR), TNFα-β-lactamase reporter gene in U937 cells; type: cell-based; conditions: for GITAR Greater than by GRAMMER % SEP: GITAR Emax minus GRAMMER Emax; for pEC50: inflection point, U937 cells, read-out: Transrepression U937 Cells GITAR IP
T2 construct: U937 cells contain an endogenous glucocorticoid receptor (GR); endogenous in cells; host or cells: U937 cells stably transfected with the TNF-alpha promoter/beta-lactamase reporter
T2 sequence (P04150 1-777): T1 sequence (P04150 1-777)
Text: Transrepression Assay (GITAR)
This assay assesses the ability of test compounds to control transcription from the TNFα-β-lactamase reporter gene in U937 cells, a human myelomonocytic leukemia cell line that naturally expresses the human GR. The assay measures compound dependent-repression of the TNFa promoter linked to a reporter gene.
The human U937 cells that had been stablely transfected with the TNF-α promoter driving β-lactamase are used for this assay. U937 cells contain an endogenous glucocorticoid receptor (GR). Cells are maintained in RPMI 1640 Growth medium (Gibco Cat#11875-093) containing 25 mM HEPES, 10% FBS, 2 mM L-Glutamine, 1 mM Sodium pyruvate, 25 μg/ml Gentamicin (Gibco Cat#15710-064), 1:1000 2-Mercaptoethanol (Gibco Cat#21985-023) and 0.8 mg/ml G418 (Gibco Cat#10131-027). The density of the cells in the flask needs to be about 1×10^6−3×10^6/ml at the time of harvest. Usually, the cells are split to 1.2˜1.4×10^5/ml (1:10) 3 days prior to the assay. 50,000 cells/well are plated in 96 well black-walled plates the day of assay. Test compounds are added 10 pt/well, and cells are incubated at 37° C. for 30-45 min. For assaying compounds, first dilute 1:10 in DMSO to make 1 mM, then further dilute 1:100 in medium to make 10× stock prior to adding to the cells. Add 50 ng/ml PMA (Sigma, cat# P8139) 10 μL/well to a final concentration 5 ng/ml, and 1 μg/ml LPS (Sigma, cat# L4130) 10 μL/well to a final concentration 100 ng/ml. Incubate cells at 37° C. overnight for ˜18 hr. PMA is stored frozen as 100 μg/ml stock in DMSO. Dilute 1:10 in DMSO for a working stock of 10 μg/ml and store at −20C. For assaying, dilute the […] working stock 1:200 in medium to make a 10× solution (50 ng/ml). Store frozen LPS at 1 mg/ml in PBS, dilute 1:1000 in medium to make 10× (1 μg/ml) for the assay. Add 6× loading buffer (CCF2−AM) 20 μL/well, and incubate at room temperature for 70-90 min. […] The activity repressed by 100 nM dexamethasone alone is set as 100% activity.

[3] = biological target: T3, Glucocorticoid Receptor (Homo sapiens, UniProt P04150); experiment: Trans-Activation Modulation of Glucocorticoid Receptor (GRAMMER), MMTV-LUC reporter gene in A549 cells; type: cell-based; conditions: Table 1; for Emax: A549, A549 cells, Emax relative to 300 nM dexamethasone, read-out: Transactivation A549 Cells GRAMMER Emax; for pEC50: inflection point, A549 cells, read-out: Transactivation A549 Cells GRAMMER IP
T3 construct: These cells express large amount of the GR and are very responsive to GC treatment; endogenous in cells; host or cells: A549 cells transiently transfected with the MMTV-LUC reporter
T3 sequence (P04150 1-777): T1 sequence (P04150 1-777)
Text: Trans-Activation Modulation of Glucocorticoid Receptor (GRAMMER)
This assay assesses the ability of test compounds to control transcription from the MMTV-LUC reporter gene in lung adenocarcinoma A549 cells or MDA-MB-453 cells, a human breast cancer cell line that naturally expresses the human GR. The assay measures induction of a modified MMTV LTR/promoter linked to the LUC reporter gene.
The routine transient assay consists of plating 7,000-25,000 cells/well of a white, clear-bottom 96-well plate. Alternatively, 384-well plates can be used at a cell concentration of 10,000/well. The media that the cells are plated in is “exponential growth medium” which consists of phenol red-free RPMI1640 containing 10% FBS, 4 mM L-glutamine, 20 mM HEPES, 10 ug/mL human insulin, and 20 ug/mL gentamicin. Incubator conditions are 37° C. and 5% CO2. The transfection is done in batch mode. The cells are trypsinized and counted to the right cell number in the proper amount of fresh media. It is then gently mixed with the FuGene6/DNA mix and plated onto the 96 or 384-well plate, all the wells receive 100 uL or 40 uL, respectively, of medium+lipid/DNA complex then incubated 37° C. overnight. The transfection cocktail consists of serum-free OptiMEM, FuGene6 reagent and DNA. The manufacturer's (Roche Biochemical) protocol for cocktail setup is as follows: The lipid to DNA ratio is approximately 2.5:1 and the incubation time is 20 min at room temperature. Sixteen to 24 hours after transfection, the cells are treated with dexamethasone to a final concentration of 10 nM as well as the compound of interest, such that final DMSO (vehicle) concentration is equal to or less than 1%. Each plate also contains samples that are treated with 10 nM dexamethasone alone, which is used as the 100% activity control. The cells are exposed to the compounds for 24 hours. After 24 hours, the cells are lysed by a Promega cell culture lysis buffer for approximately 30 min and then the luciferase activity in the extracts is assayed in the 96-well format luminometer. In 384-well format, Steady-Glo (Promega) or Steady-Lite (PerkinElmer) can be used by adding an equal volume of reagent to the media present in each well. Activity induced by 10 nM dexamethasone alone is set at 100% activity. Antagonist activity is calculated by determining the decrease in dexamethasone-induced activity in response to compound treatment relative to samples that were treated with dexamethasone alone. […] This transactivation assay can be performed in an agonist and antagonist mode to identify these different activities.
Activity of test compounds is calculated as the Emax relative to the activity obtained with 300 nM dexamethasone. Activity of test compounds is calculated as the Emax relative to the activity obtained with 300 nM DEX. […] The action of compounds is also tested in an antagonist mode (Anti-GRAMMER) in which the cells are treated with medium containing an agonist such as 10 nM DEX and the ability to agents to inhibit the activation by an agonist is measured.

[4] = U-937, U937 cells, activity repressed by 100 nM dexamethasone = 100%, Table 1, read-out: Transrepression U937 Cells GITAR Emax
[5] = U-937, text statement, 100 nM dexamethasone = 100%, read-out: maximal activity in the transrepression assay (GITAR)

SMILES | pKi ([1]; Table 1) | GITAR Greater than by GRAMMER % SEP ([2]; Table 1) | Emax [2, 4] | Emax [2, 5] | pEC50 ([2]; Table 1) | Emax [3] | pEC50 [3] | pKi ([1]; compounds in the art (WO03/086294))
C[C@]12Cc3cnn(-c4ccc(F)cc4)c3C=C1CC[C@@H]2C(=O)NCc1ccc(Cl)cc1Cl [Compound 3, (4αR,5S)-N-(2,4-dichlorobenzyl)-1-(4-fluorophenyl)-4α-methyl-1,4,4α,5,6,7-hexahydrocyclopenta[f]indazole-5-carboxamide] | 7.79 | 16.1% | 17% | > 5% | 5.28 | 0.9% | 5.25 | 
C[C@]12Cc3cnn(-c4ccc(F)cc4)c3C=C1CC[C@@H]2C(=O)N(CCO)CC(=O)c1coc2ccccc12 [Compound 29, (4αR,5S)-N-[2-(1-benzofuran-3-yl)-2-oxoethyl]-1-(4-fluorophenyl)-N-(2-hydroxyethyl)-4α-methyl-1,4,4α,5,6,7-hexahydrocyclopenta[f]indazole-5-carboxamide] | 7.41 | 29.8% | 32.5% | > 5% | 5.73 | 2.7% | 5.48 | 
COc1ccccc1CCN(CC(O)CC(F)(F)F)C(=O)[C@H]1CCC2=Cc3c(cnn3-c3ccc(F)cc3)C[C@@]21C (stereo partly drawn) [Compound 86, (4αR,5S)-1-(4-fluorophenyl)-N-[2-(2-methoxyphenyl)ethyl]-4α-methyl-N-(4,4,4-trifluoro-2-hydroxybutyl)-1,4,4α,5 ,6,7-hexahydrocyclopenta[f]indazole-5-carboxamide] | 7.94 | 35.1% | 53.9% | > 5% | 6.06 | 18.8% | 6.39 | 
C[C@]12Cc3cnn(-c4ccc(F)cc4)c3C=C1CC[C@@H]2C(=O)N(Cc1ccc(Cl)cc1Cl)CC1CC1 [Compound 7, (4αR,5S)-N-(cyclopropylmethyl)-N-(2,4-dichlorobenzyl)-1-(4-fluorophenyl)-4α-methyl-1,4,4α,5,6,7-hexahydrocyclopenta[f]indazole-5-carboxamide] | 8.89 | 4.8% | 18.2% | > 5% | 6.23 | 13.4% | 5.86 | 
CO[C@H](C)CN(C)C(=O)[C@H]1CCC2=Cc3c(cnn3-c3ccc(F)cc3)C[C@@]21C [Compound 89, (4αR,5S)-1-(4-fluorophenyl)-N-[(2R)-2-methoxypropyl]-N,4α-dimethyl-1,4,4α,5,6,7-hexahydrocyclopenta[f]indazole-5-carboxamide] | 6.92 | 6.5% | 10.2% | > 5% | 5.46 | 3.7% | 6.31 | 
CCCN(CC1CC1)C(=O)[C@H]1CCC2=Cc3c(cnn3-c3ccc(F)cc3)C[C@@]21C [Compound 5, (4αR,5S)-N-(cyclopropylmethyl)-1-(4-fluorophenyl)-4α-methyl-N-propyl-1,4,4α,5,6,7-hexahydrocyclopenta[f]indazole-5-carboxamide] | 9.05 | 24.2% | 59.6% | > 5% | 6.17 | 35.4% | 6.45 | 
C[C@]12Cc3cnn(-c4ccc(F)cc4)c3C=C1CC[C@@H]2C(=O)N1CCCCC1Cc1ccccc1 (stereo partly drawn) [Compound 22, (4αR,5S)-5-[(2-benzylpiperidin-1-yl)carbonyl]-1-(4-fluorophenyl)-4α-methyl-1,4,4α,5,6,7-hexahydrocyclopenta[f]indazole] | 8.32 | 11.7% | 17.3% | > 5% | 5.70 | 5.5% | 6.41 | 
C[C@]12Cc3cnn(-c4ccc(F)cc4)c3C=C1CC[C@@H]2C(=O)N1CCCCC1CCc1ccccc1 (stereo partly drawn) [Compound 18, (4αR,5S)-1-(4-fluorophenyl)-4α-methyl-5-{[2-(2-phenylethyl)piperidin-1-yl]carbonyl}-1,4,4α,5,6,7-hexahydrocyclopenta[f]indazole] |  | 6.3% | 10.1% | > 5% |  | 3.8% |  | 
C[C@]12Cc3cnn(-c4ccc(F)cc4)c3C=C1CC[C@@H]2C(=O)Nc1ccccc1 (single isomer, unassigned) [reference compound] |  |  |  |  |  |  |  | 5.62
